Values quoted from earlier work as cited in patent publication US20040092565A1, “Composition and method of sustaining chemotherapeutic effect while reducing dose of chemotherapeutic agent using cox-2 inhibitor and statin” (priority 2001, published 2004).
Like-named read-outs stand apart in the source and are kept apart here.

Assays:
prostate cancer specimen = conditions: mice, in vivo
[1] = tested on: Prostate Cancer Cell Line LNCaP; conditions: literature reports on LNCaP and human prostate carcinoma cells
[2] = package insert
[3] = tested on: cisplatin-induced side effects; conditions: 5 g of glutathione immediately before cisplatin

CS(=O)(=O)Nc1ccc([N+](=O)[O-])cc1OC1CCCCC1 [NS398]
angiogenesis of prostate cancer specimen (prostate cancer specimen): inhibit angiogenesis

CC[C@H](C)C(=O)O[C@H]1C[C@@H](C)C=C2C=C[C@H](C)[C@H](CC[C@@H]3C[C@@H](O)CC(=O)O3)[C@H]21 [lovastatin]
therapeutic value in prostate cancer [1]: had therapeutic value in treating prostate cancer

CS(=O)(=O)c1ccc(C2=C(c3ccccc3)C(=O)OC2)cc1 [rofecoxib]
time to maximum plasma concentration ([2]; for some persons): 2 to 9 h | time to maximum plasma concentration ([2]; on average): 2 to 3 h

N[C@@H](CCC(=O)N[C@@H](CS)C(=O)NCC(=O)O)C(=O)O [glutathione, gamma-Glu-Cys-Gly]
intensity of hematologic toxicity ([3]; compared with control group): significantly less pronounced | overall survival ([3]; vs. 10.5 months in the other group, no statistical difference): 13.5 months
